Values quoted from earlier work as cited in patent US9150734B2, “Zwitterionic lignin derivatives for marine antifouling coatings” (Empire Technology Development LLC, priority 2012, dated 2015).

Tested on: diatom species
Conditions: variety of diatom species, various concentrations; variation between species

benzalkonium chloride
concentration at which all diatoms were killed: less than 0.001%
